Patent US7585859B2, “PDE4B inhibitors and uses therefor” (Plexxikon, Inc., priority 2004, dated 2009)

What was measured:
Format in all cases: biochemical
[1] = target: T1, PDE4B: The catalytic domain of human PDE4B from S152-S528 (Homo sapiens, UniProt Q07343); test: PDE4 IC50 determination by Scintillation Proximity Assay, PDE4B; conditions: Table 1B, Formula I compounds; read-out: IC50 PDE4B
T1 construct: His6 (N); thrombin cleavage site (N); made in house; host or cells: E. coli
Procedure, shortened: (§1)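 Radiometric SPA: PDE4B (80 ng/ml) or PDE4D (4 ng/ml) hydrolysed [^3H]cAMP over 30 min at 30°, and the bead-bound [^3H]AMP was scintillation-counted.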

[2] = target: T2, PDE4D (Homo sapiens, UniProt Q08499); test: PDE4 IC50 determination by Scintillation Proximity Assay, PDE4D; conditions: Table 1B, Formula I compounds; read-out: IC50 PDE4D
T2 construct: PDE4D: The catalytic domain of human PDE4B from S3 16-V692; His6 (N); thrombin cleavage site (N); made in house; host or cells: E. coli
T2 sequence (Q08499 380-756): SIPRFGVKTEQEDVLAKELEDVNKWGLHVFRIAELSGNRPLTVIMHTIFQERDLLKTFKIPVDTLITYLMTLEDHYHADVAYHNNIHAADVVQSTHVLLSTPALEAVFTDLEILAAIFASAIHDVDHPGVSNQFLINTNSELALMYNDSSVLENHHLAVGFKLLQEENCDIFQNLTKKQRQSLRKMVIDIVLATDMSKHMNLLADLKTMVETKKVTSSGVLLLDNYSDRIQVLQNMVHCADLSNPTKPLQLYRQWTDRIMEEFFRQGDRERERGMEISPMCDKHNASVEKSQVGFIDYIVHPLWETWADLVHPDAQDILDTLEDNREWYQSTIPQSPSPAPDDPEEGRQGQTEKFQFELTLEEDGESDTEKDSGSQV
Procedure, shortened: as §1

[3] = target: T3, full-length human PDE4B2 isozyme (Homo sapiens, UniProt Q07343); test: PDE4 IC50 determination by Scintillation Proximity Assay, PDE4B2; conditions: Table 1B, Formula I compounds; read-out: IC50 PDE4B2
T3 construct: The full-length human PDE4B2 isozyme; His6 (N); TEV cleavage site (N); made in house; host or cells: baculovirus infected insect cells (unpurified lysate)
T3 sequence (Q07343 1-564 isoform Q07343-2): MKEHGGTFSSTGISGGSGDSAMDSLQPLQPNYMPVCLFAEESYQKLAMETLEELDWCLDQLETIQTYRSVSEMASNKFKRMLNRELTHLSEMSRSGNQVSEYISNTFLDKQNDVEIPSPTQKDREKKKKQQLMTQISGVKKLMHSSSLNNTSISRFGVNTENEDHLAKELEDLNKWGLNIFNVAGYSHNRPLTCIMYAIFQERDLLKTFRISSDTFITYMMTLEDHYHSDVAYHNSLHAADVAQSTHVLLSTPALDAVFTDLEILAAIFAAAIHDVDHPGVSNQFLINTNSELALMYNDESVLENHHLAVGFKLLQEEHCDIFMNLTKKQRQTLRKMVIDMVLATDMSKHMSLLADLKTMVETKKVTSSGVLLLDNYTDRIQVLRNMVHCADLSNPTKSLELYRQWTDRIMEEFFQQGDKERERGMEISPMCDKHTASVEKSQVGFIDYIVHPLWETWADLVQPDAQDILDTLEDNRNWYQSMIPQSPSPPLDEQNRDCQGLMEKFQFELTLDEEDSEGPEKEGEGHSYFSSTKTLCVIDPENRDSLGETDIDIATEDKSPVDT
Description: (§2) IC50s were determined by Scintillation Proximity Assay (SPA). The principle of the assay is based on the fact that cAMP, the PDE4 substrate, binds weakly to Yittrium Silicate SPA beads, whereas AMP, the product of PDE4 hydrolysis binds strongly. Thus, the extent of PDE4 hydrolysis of a sample of [^3H]cAMP can be measured because only the
(§3) [^3H]AMP produced by PDE4 hydrolysis will bind to the SPA beads and produce a scintillation signal.
(§4) PDE4 enzymes used for IC50 assays were:
PDE4B2: The full-length human PDE4B2 isozyme with an N-terminal His6 tag (SEQ ID NO: 18) and TEV cleavage site expressed in baculovirus infected insect cells. The enzyme was not purified from the cell lysates, so enzyme concentrations were not determined. Enzyme was stored in 50% glycerol at −20°.
(§5) Compounds tested (see Tables 3B, 4B and 5A for compounds and results) were 3-fold serially diluted 11 times in DMSO from a starting concentration of 4 mM or 40 μM, depending on compound potency. 1 μl of each dilution was transferred into duplicate wells of a white polystyrene 384-well assay plate (Coming #3705). In addition to the compound dilutions, each assay plate contained control wells with 1 μl of DMSO (to define 0% enzyme inhibition) or 1 μl of 200 μM roflumilast (to define 100% enzyme inhibition). Using a Beckman FX robot, 10 μl of [^3H] cAMP (Amersham TRK559) at 2 mCi/ml in assay buffer (50 mM Tris, pH 7.5; 8.3 mM MgCl; 1.7 mM EGTA; 0.01% BSA) was transferred to each assay well. Next, 10 μl of PDE4 enzyme in assay buffer was added and the plates were shaken for 30 s. at 1000 rpm to start the cAMP hydrolysis reaction. The concentrations of enzyme used were: PDE4B, 80 ng/ml; PDE4D, 4 ng/ml; PDE4B2, 2.5 μl of 50% glycerol stock/ml; PDE4D5 0.083 μl of 50% glycerol stock/ml. Assay plates were covered and incubated for 30 min. at 30°. Reactions were stopped by robotic addition of 10 μl of 5 mg/ml SPA beads (Amersham RPNQ0013) in 18 mM ZnSO4. The assay plates were covered with clear plastic film, centrifuged for 1 min. at 1000 RPM to settle the SPA beads, and counted using a Wallac TriLux scintillation counter. IC50's were calculated from the raw assay data by non-linear regression curve fitting using the Assay Explorer software package from MDL.

[4] = target: T4, full-length human PDE4D5 isozyme (Homo sapiens, UniProt Q08499); test: PDE4 IC50 determination by Scintillation Proximity Assay, PDE4D5; conditions: Table 1B, Formula I compounds; read-out: IC50 PDE4D5
T4 construct: The full-length human PDE4D5 isozyme; His6 (N); TEV cleavage site (N); made in house; host or cells: baculovirus infected insect cells (unpurified lysate)
T4 sequence (Q08499 1-745 isoform Q08499-6): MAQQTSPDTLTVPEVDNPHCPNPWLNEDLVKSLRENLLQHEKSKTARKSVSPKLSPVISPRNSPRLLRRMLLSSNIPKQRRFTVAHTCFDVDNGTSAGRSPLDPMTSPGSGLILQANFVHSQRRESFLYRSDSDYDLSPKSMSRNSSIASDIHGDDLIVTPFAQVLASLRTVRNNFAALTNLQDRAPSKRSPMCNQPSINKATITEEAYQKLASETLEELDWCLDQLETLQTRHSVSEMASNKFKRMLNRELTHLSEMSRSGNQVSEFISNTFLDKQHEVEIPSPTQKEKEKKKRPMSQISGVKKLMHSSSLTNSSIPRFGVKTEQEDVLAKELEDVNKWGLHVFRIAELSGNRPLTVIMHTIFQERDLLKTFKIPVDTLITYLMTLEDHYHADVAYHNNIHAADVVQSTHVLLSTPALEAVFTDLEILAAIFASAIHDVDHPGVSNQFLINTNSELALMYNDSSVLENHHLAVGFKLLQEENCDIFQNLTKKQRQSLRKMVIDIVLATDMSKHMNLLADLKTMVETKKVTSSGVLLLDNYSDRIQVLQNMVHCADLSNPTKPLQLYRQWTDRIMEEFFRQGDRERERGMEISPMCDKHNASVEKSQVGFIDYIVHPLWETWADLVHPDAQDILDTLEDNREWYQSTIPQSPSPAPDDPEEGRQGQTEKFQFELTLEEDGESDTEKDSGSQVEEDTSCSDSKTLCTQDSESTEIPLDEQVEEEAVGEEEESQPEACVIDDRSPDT
Description: as §2, §3, §4
PDE4D5: The full-length human PDE4D5 isozyme with an N-terminal His6 tag (SEQ ID NO: 18) and TEV cleavage site expressed in baculovirus infected insect cells. The enzyme was not purified from the cell lysates, so enzyme concentrations were not determined. Enzyme was stored in 50% glycerol at −20°.
as §5

T1 sequence (Q07343 with tags, fused parts or gaps): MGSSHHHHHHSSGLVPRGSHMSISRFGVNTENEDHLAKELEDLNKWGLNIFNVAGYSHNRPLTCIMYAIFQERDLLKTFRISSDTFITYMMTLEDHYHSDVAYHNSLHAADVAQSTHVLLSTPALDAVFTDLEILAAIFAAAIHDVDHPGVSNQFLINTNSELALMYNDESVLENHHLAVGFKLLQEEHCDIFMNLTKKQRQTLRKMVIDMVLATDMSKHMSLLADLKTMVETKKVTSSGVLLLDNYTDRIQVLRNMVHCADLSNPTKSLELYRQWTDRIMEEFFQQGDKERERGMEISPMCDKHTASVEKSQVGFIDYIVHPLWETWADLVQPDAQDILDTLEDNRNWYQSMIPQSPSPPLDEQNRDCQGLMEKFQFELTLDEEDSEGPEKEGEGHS

Compound	IC50 [1] [µM]	IC50 [2] [µM]	IC50 [3] [µM]	IC50 [4] [µM]
N#Cc1c(Nc2ccc(Oc3ccccc3)cc2)sc(C(=O)c2cc(-c3ccccc3)no2)c1N [Compound 1-187, 4-Amino-2-(4-phenoxy-phenylamino)-5-(3-phenyl-isoxazole-5-carbonyl)-thiophene-3-carbonitrile]	> 10	> 10	> 10	> 10
CCOC(=O)c1c(NC2CCCC2)sc(C(=O)c2cc(-c3ccccc3)no2)c1N [Compound 1-200, 4-Amino-2-cyclopentylamino-5-(3-phenyl-isoxazole-5-carbonyl)-thiophene-3-carboxylic acid ethyl ester]	> 10	< 10	> 10	> 10
N#Cc1c(NC2CCCCC2)sc(C(=O)c2cc(-c3ccccc3)no2)c1N [Compound 1-204, 4-Amino-2-cyclohexylamino-5-(3-phenyl-isoxazole-5-carbonyl)-thiophene-3-carbonitrile]	> 10	> 10	> 10	> 10
N#Cc1c(NCC2CC2)sc(C(=O)c2cc(-c3ccccc3)no2)c1N [Compound 1-206, 4-Amino-2-(cyclopropylmethyl-amino)-5-(3-phenyl-isoxazole-5-carbonyl)-thiophene-3-carbonitrile]	> 10	> 10	> 10	> 10
N#Cc1c(Nc2ccco2)sc(C(=O)c2cc(-c3ccccc3)no2)c1N [Compound 1-208, 4-Amino-2-(furan-2-ylamino)-5-(3-phenyl-isoxazole-5-carbonyl)-thiophene-3-carbonitrile]	> 10	> 10	< 10	> 10
N#Cc1c(NC2CCCC2)sc(C(=O)c2cc(-c3c(Cl)cccc3Cl)no2)c1N [Compound 1-211, 4-Amino-2-cyclopentylamino-5-[3-(2,6-dichloro-phenyl)-isoxazole-5-carbonyl]-thiophene-3-carbonitrile]	< 10	< 10	< 10	< 10
N#Cc1c(NCCN2CCOCC2)sc(C(=O)c2cc(-c3ccccc3)no2)c1N [Compound 1-213, 4-Amino-2-(2-morpholin-4-yl-ethylamino)-5-(3-phenyl-isoxazole-5-carbonyl)-thiophene-3-carbonitrile]	< 10	< 10	> 10	> 10
N#Cc1c(NCc2cccc(Cl)c2)sc(C(=O)c2cc(-c3ccccc3)no2)c1N [Compound 1-214, 4-Amino-2-(3-chloro-benzylamino)-5-(3-phenyl-isoxazole-5-carbonyl)-thiophene-3-carbonitrile]	> 10	> 10	> 10	> 10
N#Cc1c(NC2CCCC2)sc(C(=O)c2nc3ccccc3s2)c1N [Compound 1-215, 4-Amino-5-(benzothiazole-2-carbonyl)-2-cyclopentylamino-thiophene-3-carbonitrile]	< 10	< 10	< 10	< 10

More lines, now with the values ahead:

IC50 [1] [µM]	IC50 [2] [µM]	IC50 [3] [µM]	IC50 [4] [µM]	Compound
< 10	< 10	< 10	< 10	COc1ccc(Nc2sc(C(=O)c3ccc(C)cc3C)c(N)c2C#N)cc1 [Compound 1-85]
< 10	< 10	> 10	> 10	Cc1ccc(C(=O)c2sc(NC(=O)c3ccccc3C)c(C#N)c2N)c(C)c1 [Compound 1-86, N-[4-Amino-3-cyano-5-(2,4-dimethyl-benzoyl)-thiophen-2-yl]-2-methyl-benzamide]
< 10	< 10	< 10	< 10	Cc1ccc(C(=O)c2sc(NC3CCCC3)c(C#N)c2N)c(C)c1 [Compound 1-90, 4-Amino-2-cyclopentylamino-5-(2,4-dimethyl-benzoyl)-thiophene-3-carbonitrile]
< 10	< 10	< 10	< 10	CCc1ccccc1Nc1sc(C(=O)c2cc(OC)ccc2OC)c(N)c1C#N [Compound 1-99, 4-Amino-5-(2,5-dimethoxy-benzoyl)-2-(2-ethyl-phenylamino)-thiophene-3-carbonitrile]
< 10	< 10	< 10	< 10	Cc1c(C(=O)c2sc(Nc3cccc(C#N)c3)c(C#N)c2N)cnn1-c1ccccc1 [Compound 1-125, 4-Amino-2-(3-cyano-phenylamino)-5-(5-methyl-1-phenyl-1H-pyrazole-4-carbonyl)-thiophene-3-carbonitrile]
< 10	< 10	< 10	< 10	COc1ccc(Nc2sc(C(=O)c3c(-c4ccccc4)noc3C)c(N)c2C#N)cc1 [Compound 1-129, 4-Amino-2-(4-methoxy-phenylamino)-5-(5-methyl-3-phenyl-isoxazole-4-carbonyl)-thiophene-3-carbonitrile]
< 10	< 10	< 10	< 10	COC(=O)c1ccccc1Nc1sc(C(=O)c2c(-c3ccccc3)noc2C)c(N)c1C#N [Compound 1-130, 2-[4-Amino-3-cyano-5-(5-methyl-3-phenyl-isoxazole-4-carbonyl)-thiophen-2-ylamino]-benzoic acid methyl ester]
< 10	< 10	< 10	< 10	CCOC(=O)c1cc(C(=O)c2sc(NC3CCCC3)c(C#N)c2N)on1 [Compound 1-139, 5-(3-Amino-4-cyano-5-cyclopentylamino-thiophene-2-carbonyl)-isoxazole-3-carboxylic acid ethyl ester]
< 10	< 10	< 10	< 10	COc1ccc(C(=O)c2sc(Nc3cccc(C#N)c3)c(C#N)c2N)c(OC)c1 [Compound 1-155, 4-Amino-2-(3-cyano-phenylamino)-5-(2,4-dimethoxy-benzoyl)-thiophene-3-carbonitrile]
< 10	> 10	< 10	> 10	N#Cc1c(NC2CCCC2)sc(C(=O)c2cc(-c3ccc(Cl)c(Cl)c3)no2)c1N [Compound 1-172, 4-Amino-2-cyclopentylamino-5-[3-(3-4-dichloro-phenyl)-isoxazole-5-carbonyl]-thiophene-3-carbonitrile]
< 10	< 10	< 10	< 10	CSc1cccc(Nc2sc(C(=O)c3ccccc3Cl)c(N)c2C#N)c1 [Compound 1-180, 4-Amino-5-(2-chloro-benzoyl)-2-(3-methylsulfanyl-phenylamino)-thiophene-3-carbonitrile]
< 10	< 10	> 10	> 10	CCNC(=O)c1cc(C(=O)c2sc(NC3CCCC3)c(C#N)c2N)on1 [Compound 1-198, 5-(3-Amino-4-cyano-5-cyclopentylamino-thiophene-2-carbonyl)-isoxazole-3-carboxylic acid ethylamide]
< 10	< 10	< 10	< 10	N#Cc1c(NC2CCCO2)sc(C(=O)c2cc(-c3ccccc3)no2)c1N (stereo not shown) [Compound 1-210, 4-Amino-5-(3-phenyl-isoxazole-5-carbonyl)-2-(tetrahydro-furan-2-ylamino)-thiophene-3-carbonitrile]
